Read-outs that look alike come from different tables or passages of the source.

Common to all, as to test: Kinase inhibitor library screening, PrestoBlue cell viability, 1 or 10 μM, 72 h
The subject of one assay is 501Mel cells (parental). The settings on record: for Cell viability in kinase inhibitor library screening, 501Mel Parental, 1μΜ / Cell viability in kinase inhibitor library screening, 501Mel Parental, 10μΜ: in %. The essentials: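 Readout: PrestoBlue signal on a monochromator plate reader, given as percent viability relative to untreated controls. Parental and drug-resistant (Vemurafenib XP, Dabrafenib GP) sublines were tested; at least duplicates per line.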

Assay [1] relates to 501Mel-GP cells (Dabrafenib-resistant). The settings on record: for Cell viability in kinase inhibitor library screening, 501Mel GP, 1μΜ / Cell viability in kinase inhibitor library screening, 501Mel GP, 10μΜ: in %.
The subject of assay [2] is 501Mel-XP cells (Vemurafenib-resistant). As to conditions: for Cell viability in kinase inhibitor library screening, 501Mel XP, 1μΜ / Cell viability in kinase inhibitor library screening, 501Mel XP, 10μΜ: in %.
Another assay concerns A375 cells (parental).
The test system of assay [3] is A375-GP cells (Dabrafenib-resistant).
The test system of assay [4] is A375-XP cells (Vemurafenib-resistant).
Another assay relates to IGR37 cells (parental). The settings on record: for Cell viability in kinase inhibitor library screening, IGR37 Parental, 1μΜ / Cell viability in kinase inhibitor library screening, IGR37 Parental, 10μΜ: in %.
In assay [5] the test system is IGR37-GP cells (Dabrafenib-resistant). The settings on record: for Cell viability in kinase inhibitor library screening, IGR37 GP, 1μΜ: in %.
For assay [6], the system named is IGR37-XP cells (Vemurafenib-resistant). As to conditions: for Cell viability in kinase inhibitor library screening, IGR37 XP, 1μΜ: in %.

For `COc1ncc(-c2ccc3nccc(-c4ccnnc4)c3c2)cc1NS(=O)(=O)c1ccc(F)cc1F` [GSK2126458], the “Cell viability in kinase inhibitor library screening, 501Mel Parental, 1μΜ” value with 501Mel cells (parental) (501Mel Parental, 1μΜ, 72 h) worked out at 3.1. Moreover, the “Cell viability in kinase inhibitor library screening, 501Mel Parental, 10μΜ” value in the assay with 501Mel cells (parental) (501Mel Parental, 10μΜ, 72 h) was 0.9. The “Cell viability in kinase inhibitor library screening, 501Mel GP, 1μΜ” value in assay [1] (501Mel GP, 1μΜ, 72 h) is reported as 6.0. Moreover, in assay [1] (501Mel GP, 10μΜ, 72 h), the “Cell viability in kinase inhibitor library screening, 501Mel GP, 10μΜ” value turned out to be 0.6. Further, in assay [2] (501Mel XP, 1μΜ, 72 h), the “Cell viability in kinase inhibitor library screening, 501Mel XP, 1μΜ” value is reported as 2.1. Besides, the “Cell viability in kinase inhibitor library screening, 501Mel XP, 10μΜ” value in assay [2] (501Mel XP, 10μΜ, 72 h) was determined as 0.8. Further, the “Cell viability in kinase inhibitor library screening, A375 Parental, 10μΜ” value with A375 cells (parental) (A375 Parental, 10μΜ, 72 h) turned out to be 3.2. Further, the “Cell viability in kinase inhibitor library screening, A375 Parental, 1μΜ” value with A375 cells (parental) (A375 Parental, 1μΜ, 72 h) amounted to 15.7. The “Cell viability in kinase inhibitor library screening, A375 GP, 1μΜ” value in assay [3] (A375 GP, 1μΜ, 72 h) came to 14.4. In addition, the “Cell viability in kinase inhibitor library screening, A375 GP, 10μΜ” value in assay [3] (A375 GP, 10μΜ, 72 h) worked out at 3.9. The “Cell viability in kinase inhibitor library screening, A375 XP, 1μΜ” value in assay [4] (A375 XP, 1μΜ, 72 h) is given as 13.7. The “Cell viability in kinase inhibitor library screening, A375 XP, 10μΜ” value in [4] (A375 XP, 10μΜ, 72 h) is reported as 2.8. In addition, the “Cell viability in kinase inhibitor library screening, IGR37 Parental, 1μΜ” value in the assay with IGR37 cells (parental) (IGR37 Parental, 1μΜ, 72 h) stood at 7.2. The “Cell viability in kinase inhibitor library screening, IGR37 Parental, 10μΜ” value in the assay with IGR37 cells (parental) (IGR37 Parental, 10μΜ, 72 h) amounted to 0.469. Besides, the Cell viability in kinase inhibitor library screening, IGR37 GP, 10μΜ in [5] (IGR37 GP, 10μΜ, 72 h) is 2.7%. Moreover, in [5] (IGR37 GP, 1μΜ, 72 h), the “Cell viability in kinase inhibitor library screening, IGR37 GP, 1μΜ” value is recorded as 9.1. The Cell viability in kinase inhibitor library screening, IGR37 XP, 10μΜ in assay [6] (IGR37 XP, 10μΜ, 72 h) amounted to 1.1%. In addition, the “Cell viability in kinase inhibitor library screening, IGR37 XP, 1μΜ” value in assay [6] (IGR37 XP, 1μΜ, 72 h) was determined as 7.6.
On to `CN1CCN(C2CCN(C(=O)Nc3cc(Oc4ccc(NC(=O)C5(C(=O)Nc6ccc(F)cc6)CC5)c(F)c4)ccn3)CC2)CC1` [Golvatinib (E7050)], for which the “cell viability (kinase inhibitor library screening)” value in the assay on 501Mel cells (parental) (501Mel Parental, 1μΜ, 72 h) is given as 96.5%; in the assay with 501Mel cells (parental) (501Mel Parental, 10μΜ, 72 h), 0.148%; in assay [1] (501Mel GP, 1μΜ, 72 h), 81.2%; in [1] (501Mel GP, 10μΜ, 72 h) it was -0.26%; in assay [2] (501Mel XP, 1μΜ, 72 h), 66.2%; in assay [2] (501Mel XP, 10μΜ, 72 h), -0.363%. For the same compound, the “cell viability (kinase inhibitor library screening)” value is on record as 70.5% with A375 cells (parental) (A375 Parental, 10μΜ, 72 h); 93.1% with A375 cells (parental) (A375 Parental, 1μΜ, 72 h); 103.0% in assay [3] (A375 GP, 1μΜ, 72 h); 53.0% in assay [3] (A375 GP, 10μΜ, 72 h); 99.6% in assay [4] (A375 XP, 1μΜ, 72 h); 65.0% in assay [4] (A375 XP, 10μΜ, 72 h). Moreover, the “cell viability (kinase inhibitor library screening)” value with IGR37 cells (parental) (IGR37 Parental, 1μΜ, 72 h) was found to be 99.0%; with IGR37 cells (parental) (IGR37 Parental, 10μΜ, 72 h), 18.3%; in assay [5] (IGR37 GP, 1μΜ, 72 h), 92.1%; in assay [5] (IGR37 GP, 10μΜ, 72 h), 49.6%; in assay [6] (IGR37 XP, 1μΜ, 72 h), 95.2%; in [6] (IGR37 XP, 10μΜ, 72 h), 10.4%.
Turning to `COc1ccc(S(=O)(=O)N(C(C)=O)c2ccccc2/C=C/c2cc[n+]([O-])cc2)cc1` [HMN-214], in the assay on 501Mel cells (parental), the “Cell viability in kinase inhibitor library screening, 501Mel Parental, 1μΜ” value is 17.6 and the “Cell viability in kinase inhibitor library screening, 501Mel Parental, 10μΜ” value was found to be 20.7. For the same compound, in assay [1], the “Cell viability in kinase inhibitor library screening, 501Mel GP, 1μΜ” value amounted to 21.4 and the “Cell viability in kinase inhibitor library screening, 501Mel GP, 10μΜ” value was determined as 22.7. In addition, in assay [2], the “Cell viability in kinase inhibitor library screening, 501Mel XP, 1μΜ” value was determined as 14.9 and the “Cell viability in kinase inhibitor library screening, 501Mel XP, 10μΜ” value turned out to be 12.4. Further, in the assay on A375 cells (parental), the “Cell viability in kinase inhibitor library screening, A375 Parental, 1μΜ” value is given as 34.0 and the “Cell viability in kinase inhibitor library screening, A375 Parental, 10μΜ” value stood at 23.3. Further, in [3], the “Cell viability in kinase inhibitor library screening, A375 GP, 1μΜ” value amounted to 42.6 and the “Cell viability in kinase inhibitor library screening, A375 GP, 10μΜ” value amounted to 20.9. Further, in [4], the “Cell viability in kinase inhibitor library screening, A375 XP, 1μΜ” value is 37.9 and the “Cell viability in kinase inhibitor library screening, A375 XP, 10μΜ” value was 18.1. In the assay with IGR37 cells (parental), the “Cell viability in kinase inhibitor library screening, IGR37 Parental, 1μΜ” value is 19.8 and the “Cell viability in kinase inhibitor library screening, IGR37 Parental, 10μΜ” value worked out at 16.1. In addition, in assay [5], the Cell viability in kinase inhibitor library screening, IGR37 GP, 10μΜ was found to be 66.9% and the “Cell viability in kinase inhibitor library screening, IGR37 GP, 1μΜ” value was 69.1. Besides, in assay [6], the Cell viability in kinase inhibitor library screening, IGR37 XP, 10μΜ worked out at 28.3% and the “Cell viability in kinase inhibitor library screening, IGR37 XP, 1μΜ” value worked out at 57.1.
With `CNC(=O)c1ccc(-c2cnc3ncc(Cc4ccc5ncccc5c4)n3n2)cc1F` [INCB28060], the “cell viability (kinase inhibitor library screening)” value with 501Mel cells (parental) (501Mel Parental, 1μΜ, 72 h) is listed as 99.4%; with 501Mel cells (parental) (501Mel Parental, 10μΜ, 72 h), 93.5%; in [1] (501Mel GP, 1μΜ, 72 h) it was 81.7%; in assay [1] (501Mel GP, 10μΜ, 72 h), 67.0%; in [2] (501Mel XP, 1μΜ, 72 h) it was 68.2%; in [2] (501Mel XP, 10μΜ, 72 h), 62.9%. Further, the “cell viability (kinase inhibitor library screening)” value in the assay with A375 cells (parental) (A375 Parental, 1μΜ, 72 h) turned out to be 103.1%; in assay [3] (A375 GP, 1μΜ, 72 h), 103.9%; in assay [3] (A375 GP, 10μΜ, 72 h), 95.7%; in assay [4] (A375 XP, 1μΜ, 72 h), 106.9%; in assay [4] (A375 XP, 10μΜ, 72 h), 103.3%; in the assay with IGR37 cells (parental) (IGR37 Parental, 1μΜ, 72 h), 106.9%. Besides, the “cell viability (kinase inhibitor library screening)” value with IGR37 cells (parental) (IGR37 Parental, 10μΜ, 72 h) amounted to 100.3%; in [5] (IGR37 GP, 1μΜ, 72 h), 97.1%; in assay [5] (IGR37 GP, 10μΜ, 72 h) it was 85.7%; in [6] (IGR37 XP, 1μΜ, 72 h), 98.3%; in [6] (IGR37 XP, 10μΜ, 72 h), 47.6%.
